{
  "source": "patent US10874740B2",
  "about": "“5-ALA derivatives and use thereof” (UNIVERSITE DE GENEVE, priority 2015, dated 2020)",
  "key": {"[1]": {"experiment": "Nanoassembly formation and size by Dynamic Light scattering (DLS)", "type": "physicochemical", "settings": "for formation of nanoassemblies in aqueous solution: ethanol solution added dropwise to MiliQ water; for average diameter of particles (DLS): nanomicelles 1 mg/mL in water", "method": "1 mg of compound 4 or compound 6 was dissolved in ethanol (300 μL). This solution was slowly added dropwise using a microsyringe to MiliQ water (1.2 mL) under magnetic stirring (500 RPM). […] The organic solvent was evaporated under reduced pressure (100 mbar) at 40° C. yielding the final solution of nanomicelles of 1 mg/mL which were analysed by Dynamic Light scattering (DLS) using Zetasizer Nano ZS machine (Malvern) and stored at ambient temperature. Dynamic Light scattering (DLS) results are presented under FIG. 4 for compound 4 (A) and for compound 6 (B) and show a high homogeneity in size of the particule population with an average diameter of about 73 nm for compound 4 and 98.5 nm for compound 6."}, "chick embryos": {"test_system": "chick embryos", "experiment": "In vivo chicken acute toxicity (chick embryo, intravenous)", "method": "(§1) 5-ALA-Hex is known for its pronounced acute toxicity after intravenous injection and the LD50 of the compounds of the invention was determined by escalating doses of compounds dissolved in milliQ™ water and pH adjusted to 7.4 administered to embryos via intravenous injection. The viability of chick embryos has been evaluated after 24 h after injection. […] This higher LD50 value is believed to be a consequence of the rapid conversion into 5-ALA-Hex. Therefore, the very high doses of Compound 1 that were tolerated by chick embryos (LD50 of 500 μmol/kg) are consistent since this compound is much more slowly converted into 5-ALA-Hex (and 5-ALA) in all tissues expressing alkaline phosphatase."}, "[2]": {"experiment": "Chemical stability in buffer at three pH values (UPLC)", "type": "physicochemical", "settings": "5 mM, 37° C., 20 mM buffers pH 4.00, 7.40, 8.90", "method": "Chemical stability was investigated for compounds of the invention as compared to the known ester ALA-Hex as follows: Chemical stability was assayed at three different pH value by dissolving the compound of interest (or ALA-Hex control) in an appropriate buffer (pH=4.00 acetate buffer; pH=7.40 phosphate buffer; and pH 8.90 borate buffer). The buffer concentration was 20 mM. The solution was kept at 37° C. and assayed at different time points. Quantification of the starting material and degradation products was performed by UPLC using the Thermo Scientific Accela UPLC-MS system. The column used was Macherey-Nagel Nucleodur C18 Gravity 50/2 1.8 μm. 10 μL aliquots were injected and eluted using 10% acetonitrile and 90% ammonium formate buffer (10 mM) isocratic elution. The column was kept at 40° C. and the flow rate was 0.4 mL/min. The quantification was performed by integrating AUCs of the chromatograms of the peaks of interest at 220 nm."}, "[3]": {"test_system": "alkaline phosphatase from calf intestine", "experiment": "In vitro enzymatic activation by alkaline phosphatase (UPLC)", "type": "biochemical", "settings": "borate buffer pH 8.90, 0.5 mM magnesium chloride, 1 U to 100 U alkaline phosphatase, 37° C.", "method": "The ability of compounds of the invention to release ALA in presence of a phosphatase was investigated as follows: In vitro activation of compounds of interest by alkaline phosphatase was assayed by dissolving the compound of the invention (or ALA-Hex control) in 20 mM borate buffer at pH 8.90 containing 0.5 mM magnesium chloride and 1 U to 100 U of alkaline phosphatase from calf intestine (Applichem). The solution was kept at 37° C. and assayed at different time points. Quantification of the starting material and degradation products was performed by UPLC using the Thermo Scientific Accela UPLC-MS system. The column used was Macherey-Nagel Nucleodur C18 Gravity 50/2 1.8 μm. […] aliquots were injected and eluted using appropriate acetonitrile and ammonium formate buffer (10 mM) ratio with isocratic elution according to the compound of invention. The quantification was performed by integrating AUCs of the chromatograms of the peaks of interest at 220 nm."}, "PC3 cell line": {"test_system": "PC3 cell line", "experiment": "Porphyrin accumulation (PpIX fluorescence) in PC3 cells", "type": "cell-based, human", "settings": "for porphyrin synthesis capability (fluorescence kinetics) compared to ALA-hex: 1 mM; for concentration for optimal (highest) porphyrin formation: tested 0.1 to 3.3 mM", "method": "(§2) Human bladder carcinoma cell line T24 (ATTC® HTB-4™), human lung adenocarcinoma cell line A549 (ATTC® CCL-185™), human prostate cancer cell line PC-3 (ATTC® CRL-1435™), and human glioblastoma cell line U-87Mg (ATTC® HTB-14™) were grown as monolayers and maintained in DMEM^+GlutaMAX™-I medium, F12K nutrient mix, and MEM, respectively. Culture media were supplemented with 10% fetal calf serum (FCS) and […] streptomycin and 100 IU/ml penicillin. Cells were cultivated at 37° C. in humidified 95% air and 5% CO2 atmosphere and routinely maintained by serial passage in a new medium every 2-5 days, depending on the cell type.\n(§3) Cell viability was measured using an MTT assay. T24 (5000 cells/well), PC3 (12000 cells/well), A549 (10000 cells/well) and U87Mg (10000 cells/well) were seeded in a 96-well plate and grown 12 to 18 hours. Then, the medium was replaced with medium containing increasing concentrations of different compounds of the invention (from 0.1 to 3.3 mM) and PPIX fluorescence was recorded with a plate reader (Safire, Tecan, Switzerland) at different time points (1, 2, 4, 6, 8 and 24 h). Excitation wavelength was set at 405 nm and emission wavelength at 630 nm. After 24 hours of incubation with different products, the cells were washed twice with DPBS and fresh medium was put into each well. They were then either irradiated with a light dose of 10 J/cm^2 or kept in the dark. After background subtraction, porphyrin accumulation was calculated according to the fluorescence intensity at 635 nm."}, "A549 cell line": {"test_system": "A549 cell line", "experiment": "Porphyrin accumulation (PpIX fluorescence) in A549 cells", "type": "cell-based, human", "settings": "tested 0.1 to 3.3 mM", "method": "as §2\nas §3, with “After 24 hours of incubation with different products, the cells were washed twice with DPBS and fresh medium was put into each well. They were then either irradiated with a light dose of 10 J/cm^2 or kept in the dark.” left out"}, "U87-MG cell line": {"test_system": "U87-MG cell line", "experiment": "Porphyrin accumulation (PpIX fluorescence) in U87-MG cells", "type": "cell-based, human", "settings": "tested 0.1 to 3.3 mM", "method": "as §2\nas §3, with “After 24 hours of incubation with different products, the cells were washed twice with DPBS and fresh medium was put into each well. They were then either irradiated with a light dose of 10 J/cm^2 or kept in the dark.” left out"}, "T24 cell line": {"test_system": "T24 cell line", "experiment": "Porphyrin accumulation (PpIX fluorescence) in T24 cells", "type": "cell-based, human", "settings": "tested 0.1 to 3.3 mM", "method": "as §2\nas §3, with “After 24 hours of incubation with different products, the cells were washed twice with DPBS and fresh medium was put into each well. They were then either irradiated with a light dose of 10 J/cm^2 or kept in the dark.” left out"}, "[4]": {"experiment": "In vivo chicken acute toxicity (chick embryo, intravenous)", "settings": "chicken (chick embryo), in vivo; chick embryos, intravenous injection, viability 24 h after injection", "method": "as §1"}, "CAM U87Mg spheroid tumor": {"test_system": "CAM U87Mg spheroid tumor", "experiment": "In vivo CAM U87Mg spheroid tumor model, fluorescence imaging", "design": "species or system chick", "settings": "Compound 7 100 μmol/kg; for tumor fluorescence signal / contrast: intravenous, Compound 1 300 μmol/kg, PpIX 100 μmol/kg, imaging 0, 30, 60, 120 min", "method": "Compounds of the invention were tested in vivo in using the chorioallantoic membrane (CAM) model U87-Mg tumor spheroids were obtained using a modified procedure (De Magalhaes et al., 2010, 20-26) using 2.5×10^4 cells/mL. Spheroids grew 4 days before inoculation into the CAM. On embryonic development day (EDD) 7, the hole in the eggshell was enlarged to allow access to the CAM vasculature, using a needle (25 Gauge) a hole was drilled in the CAM. A binocular lens Leica M80 (Wetzlar, Germany) was used to perform the inoculation. Once the hole was pierced in the CAM, the spheroid (approximately of 200 μm) was placed in the cavity beneath the hole. Cell medium (20 μL) was placed on the spheroid to allow the tumor to attach to the CAM membrane and develop. Then, the eggs were sealed with parafilm and returned to the incubator to let spheroids grow until EDD13. Compounds were injected intravenously into the CAM vasculature (10-40 μL), preferentially into a large blood vessels using a needle (gauge 33, 51 mm, tap N type) attached to a 100 μL syringe (Hamilton, Reno, Nev.). Fluorescence imaging of tumor nodules was done with 12-bit monochrome CDD camera (Retiga EX Q-Imaging Canada) connected to fluorescence Eclipse E600 FN microscope with a CFI achromat objective characterized by magnification 4×, numerical aperture of 0.10 and a working distance of 30 mm (Nikon, Tokyo, Japan). A conical holder was used to place the eggs during experimentation under the objective of fluorescence microscope. A mercury arc lamp HBO 103/W/2 (MS Scientific Berlin, Germany) was used to provide illumination. For the detection of PpIX a BV-2A cube (Nikon, Tokyo, Japan) with an excitation filter: 400-440 nm, a dichroic mirror (455 nm) and an emission filter (470 nm) was used. A hollow slider filter 650/50 nm was added. Band pass filter 560/40 was used to image the autofluorescence of tumors. All pictures were taken with a 90 ms exposure and gain set at 50. […] Data was analysed using multiple t-tests and statistical significance determined at each time point."}},
  "note": "Counter-ions that a name gives are not always drawn.",
  "data": [
    {"smiles": "CCCCCCOC(=O)CCC(=O)CNP(=O)(NCC(=O)CCC(=O)OCCCCCC)OCCC/C(C)=C/CC/C(C)=C/CC/C=C(\\C)CC/C=C(\\C)CCC=C(C)C", "note": "[Compound 6, Bis-hexyl 5-((hydroxy(((4E,8E,12E,16E)-4,8,13,17,21-pentamethyldocosa-4,8,12,16,20-pentaen-1-yl)oxy)phosphoryl)bis-amino)-4-oxopentanoate]", "values": [
      {"measurement": "formation of nanoassemblies in aqueous solution", "setting": "[1]", "result": "Nanoassemblies formed spontaneously"},
      {"measurement": "average diameter of particles (DLS)", "setting": "[1]", "result": "~98.5", "unit": "nm"}
    ]},
    {"smiles": "CCCCCCOC(=O)CCC(=O)CN", "note": "[Compound 5-ALA-Hex, 5-ALA-hexyl ester, reference compound]", "values": [
      {"measurement": "LD50", "setting": "chick embryos; intravenous injection, viability 24 h after injection", "result": 75, "unit": "µmol/kg"}
    ]},
    {"smiles": "CCCCCCOC(=O)CCC(=O)CNC(=O)OCOP(=O)(O)O", "note": "[Compound 7, hexyl 4-oxo-5-((((phosphonooxy)methoxy)carbonyl)amino)pentanoate]", "values": [
      {"measurement": "chemical stability (% of compound remaining in solution versus time) as compared to ALA-Hex", "setting": "[2]", "result": "increased chemical stability"},
      {"measurement": "release of ALA upon activation of a phosphatase", "setting": "[3]", "result": "slower than the one from compound 1"},
      {"measurement": "porphyrin synthesis capability (fluorescence kinetics) compared to ALA-hex", "setting": "PC3 cell line", "result": "comparable porphyrin synthesis capability"},
      {"measurement": "concentration for optimal (highest) porphyrin formation", "setting": "PC3 cell line", "result": 0.33, "unit": "mM"},
      {"measurement": "concentration for optimal (highest) porphyrin formation", "setting": "A549 cell line", "result": 0.33, "unit": "mM"},
      {"measurement": "concentration for optimal (highest) porphyrin formation", "setting": "U87-MG cell line", "result": 0.1, "unit": "mM"},
      {"measurement": "concentration for optimal (highest) porphyrin formation", "setting": "T24 cell line", "result": 0.1, "unit": "mM"},
      {"measurement": "LD50 at 24 h", "setting": "[4]", "result": 200, "unit": "µmol/kg"},
      {"measurement": "increase in LD50 compared to 5-ALA-Hex", "setting": "chick embryos", "result": "several fold"},
      {"measurement": "time post injection at which fluorescence started to outline the tumors", "setting": "CAM U87Mg spheroid tumor; intravenous into CAM vasculature", "result": 30, "unit": "min"},
      {"measurement": "tumor fluorescence signal / contrast", "setting": "CAM U87Mg spheroid tumor", "result": "excellent and statistically significant signal to background at 1 h and also at 2 h"}
    ]},
    {"smiles": "CCCCCCOC(=O)CCC(=O)CNP(=O)(O)Oc1ccccc1", "note": "[Compound 1, Triethylammonium salt of hexyl 5-((hydroxy(phenoxy)phosphoryl)amino)-4-oxopentanoate]", "values": [
      {"measurement": "chemical stability (% of compound remaining in solution versus time) as compared to ALA-Hex", "setting": "[2]", "result": "increased chemical stability"},
      {"measurement": "porphyrin synthesis capability (fluorescence kinetics) compared to ALA-hex", "setting": "PC3 cell line", "result": "comparable porphyrin synthesis capability"},
      {"measurement": "concentration for optimal (highest) porphyrin formation", "setting": "PC3 cell line", "result": 3.3, "unit": "mM"},
      {"measurement": "concentration for optimal (highest) porphyrin formation", "setting": "A549 cell line", "result": 3.3, "unit": "mM"},
      {"measurement": "concentration for optimal (highest) porphyrin formation", "setting": "U87-MG cell line", "result": 1.0, "unit": "mM"},
      {"measurement": "concentration for optimal (highest) porphyrin formation", "setting": "T24 cell line", "result": 3.3, "unit": "mM"},
      {"measurement": "LD50 at 24 h", "setting": "[4]", "result": 500, "unit": "µmol/kg"},
      {"measurement": "increase in LD50 compared to 5-ALA-Hex", "setting": "chick embryos", "result": 7, "unit": "fold"},
      {"measurement": "tumor fluorescence signal / contrast", "setting": "CAM U87Mg spheroid tumor", "result": "delayed onset of the fluorescence signal but a robust contrast"}
    ]},
    {"smiles": "CCCCCCOC(=O)CCC(=O)CNP(=O)(O)OCCC/C(C)=C/CC/C(C)=C/CC/C=C(\\C)CC/C=C(\\C)CCC=C(C)C", "note": "[Compound 4, Hexyl 5-((hydroxy(((4E,8E,12E,16E)-4,8,13,17,21-pentamethyldocosa-4,8,12,16,20-pentaen-1-yl)oxy)phosphoryl)amino)-4-oxopentanoate]", "values": [
      {"measurement": "formation of nanoassemblies in aqueous solution", "setting": "[1]", "result": "Nanoassemblies formed spontaneously"},
      {"measurement": "average diameter of particles (DLS)", "setting": "[1]", "result": "about 73 nm"}
    ]}
  ]
}
